In patent publication US9695155B2, “Herbicidal substituted pyrimidinyloxy benzene compounds” (E. I. DU PONT DE NEMOURS AND COMPANY, priority 2013, dated 2017):

Tests used:
rice = assay: Test C flooded paddy test; type: in vivo, Oryza sativa; settings: Flood, scale 0 to 100 (0 no effect, 100 complete control), 13 to 15 days
Method in brief: (§1)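 Visual injury ratings against untreated controls, taken 13 to 15 days after compound was added to paddy water standing 3 cm above the soil.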

sedge, umbrella = assay: Test C flooded paddy test; type: in vivo, Cyperus difformis; settings: Flood, scale 0 to 100 (0 no effect, 100 complete control), 13 to 15 days
Method in brief: as §1

kochia = assay: Test A preemergence; type: in vivo, Kochia scoparia
Method in brief: (§2)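 Compounds in non-phytotoxic solvent with surfactant applied as soil spray preemergence, or postemergence to plants 2-10 cm at one- to two-leaf stage, in loam/sand. After approximately 10 days in greenhouse, injury rated visually versus untreated controls, 0 (no effect) to 100 (complete control).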

Italian ryegrass = assay: Test A preemergence; type: in vivo, Lolium multiflorum
Method in brief: as §2

blackgrass = assay: Test A postemergence; type: in vivo, Alopecurus myosuroides
Method in brief: as §2

[1] = 125 g ai/ha, 0 to 100 scale where 0 is no effect and 100 is complete control
[2] = 500 g ai/ha, 0 to 100 scale, 0 no effect, 100 complete control, approx. 10 days
[3] = 500 g ai/ha, 0 to 100 scale, 0 no effect, 100 complete control
[4] = 31 g ai/ha, 0 to 100 scale, 0 no effect, 100 complete control
[5] = 500 g ai/ha, 0 to 100 scale where 0 is no effect and 100 is complete control
[6] = 1000 g ai/ha, 0 to 100 scale, 0 no effect, 100 complete control, approx. 10 days
[7] = 1000 g ai/ha, 0 to 100 scale, 0 no effect, 100 complete control
[8] = 31 g ai/ha, 0 to 100 scale where 0 is no effect and 100 is complete control, visual, approximately 10 days
[9] = 125 g ai/ha, 0 to 100 scale, 0 no effect, 100 complete control

SMILES | Plant response rating, Rice (rice; 31 g ai/ha) | Plant response rating, Rice (rice; 62 g ai/ha) | Plant response rating, Rice (rice; 125 g ai/ha) | Plant response rating, Rice (rice; 250 g ai/ha) | Plant response rating, Sedge, Umbrella (sedge, umbrella; 31 g ai/ha) | Plant response rating, Sedge, Umbrella (sedge, umbrella; 62 g ai/ha) | Plant response rating, Sedge, Umbrella (sedge, umbrella; 125 g ai/ha) | Plant response rating, Sedge, Umbrella (sedge, umbrella; 250 g ai/ha) | Plant response rating, Kochia (kochia; [1]) | Plant response rating, Ryegrass, Italian (Italian ryegrass; [1]) | Kochia plant response rating (kochia; [5]) | Ryegrass, Italian plant response rating (Italian ryegrass; [5]) | Plant response rating, Blackgrass (blackgrass; [5]) | further results
Clc1cnc(Oc2ccccc2-n2cc(Cl)cn2)nc1 [Compound 3] | 0 | 0 | 0 | 0 | 0 | 0 | 20 | 70 | – | – | – | – | – | –
N#Cc1cccc(Oc2ncc(F)cn2)c1-n1cc(Br)cn1 [Compound 62] | 15 | 15 | 15 | 25 | 0 | 50 | 90 | 100 | – | – | – | – | – | –
Clc1cnc(Oc2cccc(Br)c2-n2cc(Br)cn2)nc1 [Compound 65] | 0 | 0 | 0 | 0 | 50 | 65 | 75 | 85 | – | – | – | – | – | –
FCc1cccc(Oc2ncc(Cl)cn2)c1-n1cc(Br)cn1 [Compound 83] | – | – | – | – | – | – | – | – | 100 | 50 | – | – | – | Kochia plant response rating (kochia; [2]): 100; Ryegrass, Italian plant response rating (Italian ryegrass; [2]): 60; Plant response rating, Blackgrass (blackgrass; [1]): 100; Plant response rating, Blackgrass (blackgrass; [3]): 100
CCOc1cn(-c2c(Br)cccc2Oc2ncc(Cl)cn2)nn1 [Compound 84] | – | – | – | – | – | – | – | – | 100 | 0 | – | – | – | Kochia plant response rating (kochia; [2]): 100; Ryegrass, Italian plant response rating (Italian ryegrass; [2]): 20; Plant response rating, Blackgrass (blackgrass; [1]): 80; Plant response rating, Blackgrass (blackgrass; [3]): 100
FCc1cccc(Oc2ncc(F)cn2)c1-n1cc(C(F)(F)F)cn1 [Compound 118] | – | – | – | – | – | – | – | – | 100 | 50 | – | – | – | Kochia plant response rating (0 to 100 scale) (kochia; 31 g ai/ha): 100; Ryegrass, Italian plant response rating (0 to 100 scale) (Italian ryegrass; 31 g ai/ha): 0; Plant response rating, Blackgrass (blackgrass; [4]): 60; Plant response rating, Blackgrass (blackgrass; [1]): 90
FCc1cccc(Oc2ncc(Br)cn2)c1-n1cc(C(F)(F)F)cn1 [Compound 120] | 0 | 0 | 15 | 60 | 0 | 0 | 60 | 85 | 90 | 30 | – | – | – | Kochia plant response rating (0 to 100 scale) (kochia; 31 g ai/ha): 20; Ryegrass, Italian plant response rating (0 to 100 scale) (Italian ryegrass; 31 g ai/ha): 0; Plant response rating, Blackgrass (blackgrass; [4]): 60; Plant response rating, Blackgrass (blackgrass; [1]): 80
Clc1cnc(Oc2cccc(Br)c2-n2cc(Br)nn2)nc1 [Compound 129] | – | – | – | – | – | – | – | – | 100 | 10 | 100 | 30 | 90 | Blackgrass plant response rating (blackgrass; [1]): 70
FC(F)(F)Sc1cnn(-c2ccccc2Oc2ncc(Cl)cn2)c1 [Compound 132, 5-chloro-2-[2-[4-(trifluoromethylthio)-1H-pyrazol-1-yl]phenoxy]pyrimidine] | – | – | – | – | – | – | – | – | 100 | 30 | 100 | 40 | 90 | Blackgrass plant response rating (blackgrass; [1]): 60
Cc1cnc(Oc2cccc(C#N)c2-n2cc(I)cn2)nc1 [Compound 136] | – | – | – | – | – | – | – | – | 90 | 0 | 100 | 30 | 100 | Blackgrass plant response rating (blackgrass; [1]): 20
COc1cnn(-c2c(C#N)cccc2Oc2ncc(Cl)cn2)c1 [Compound 137] | – | – | – | – | – | – | – | – | 90 | 0 | 100 | 20 | 90 | Blackgrass plant response rating (blackgrass; [1]): 20
CCCOc1cnn(-c2c(C#N)cccc2Oc2ncc(Cl)cn2)c1 [Compound 150] | 0 | 0 | 0 | 0 | 0 | 50 | 75 | 85 | 100 | 20 | 100 | 50 | 100 | Blackgrass plant response rating (blackgrass; [1]): 100
FCc1cn(-c2c(F)cccc2Oc2ncc(Cl)cn2)nn1 [Compound 154] | – | – | – | – | – | – | – | – | – | – | – | – | – | Kochia plant response rating (kochia; [6]): 100; Ryegrass, Italian plant response rating (Italian ryegrass; [6]): 90; Plant response rating, Blackgrass (blackgrass; [7]): 90
Fc1cccc(Oc2ncc(Cl)cn2)c1-n1cc(C2CC2)nn1 [Compound 155] | – | – | – | – | – | – | – | – | – | – | – | – | – | Kochia plant response rating (kochia; [6]): 100; Ryegrass, Italian plant response rating (Italian ryegrass; [6]): 60; Plant response rating, Blackgrass (blackgrass; [7]): 100
N#Cc1cnn(-c2c(Oc3ncc(Cl)cn3)cccc2C(F)F)c1 [Compound 236] | 0 | 0 | 10 | 20 | 0 | 20 | 60 | 80 | – | – | – | – | – | –
N#Cc1cccc(Oc2ncc(Cl)cn2)c1-n1cnc(C(F)(F)F)c1 [Compound 252, 3-[(5-chloro-2-pyrimidinyl)oxy]-2-[4-(trifluoromethyl)-1H-imidazol-1-yl]benzonitrile] | – | – | – | – | – | – | – | – | – | – | 100 | 90 | 100 | Plant response rating, Kochia (kochia; [8]): 80; Kochia plant response rating (0 to 100 scale) (kochia; 125 g ai/ha): 100; Plant response rating, Ryegrass, Italian (Italian ryegrass; [8]): 20; Ryegrass, Italian plant response rating (0 to 100 scale) (Italian ryegrass; 125 g ai/ha): 20; Plant response rating, Blackgrass (blackgrass; [4]): 10; Plant response rating, Blackgrass (blackgrass; [9]): 60
N#Cc1cccc(Oc2ncc(Cl)cn2)c1-n1cc(-n2ccc(C(F)(F)F)n2)cn1 [Compound 284] | – | – | – | – | – | – | – | – | – | – | 100 | 20 | 70 | Kochia plant response rating (0 to 100 scale) (kochia; 125 g ai/ha): 80; Ryegrass, Italian plant response rating (0 to 100 scale) (Italian ryegrass; 125 g ai/ha): 20; Plant response rating, Blackgrass (blackgrass; [9]): 30
